This is an account of results in patent publication US11591316B2, “Compounds, compositions, and methods” (DENALI THERAPEUTICS INC., priority 2016, dated 2023).

A short description of this data set: Metabolic stability in human liver microsomes. The class given is in vitro ADME. The note with it: 1 μM compound, 0.5 mg/mL protein, projected hepatic clearance (well-stirred model), Table 5. On the procedure:
Metabolic stability of compounds was evaluated in human liver microsomes (from Corning or XenoTech, LLC) using a 96-well plate assay format. Compounds were incubated at 37° C. at 1 μM final concentration in the microsomal matrix (0.5 mg/mL total protein) in the presence or absence of NADPH cofactor. An NADPH regenerating system, comprised of NADP, MgCl2, isocitric acid, and isocitrate dehydrogenase, was used in the assay. Enzymatic reactions were conducted for 0, 5, 10, 20, 30, or 60 min before termination by addition of acetonitrile containing tolbutamide and labetalol internal standards (100 ng/mL). After shaking for 10 min, plates were subjected to centrifugation (4000 rpm at 4° C.) for 20 min and supernatants were mixed 1:3 with HPLC grade water. Samples were analyzed by LC-MS/MS using appropriate MRM transitions for each analyte and internal standard (IS). Analyte/IS peak area ratios were used to determine percent compound remaining at each time point. Intrinsic clearance (Clint; expressed as mL·min^−1·mg^−1) was calculated from the first order elimination constant (k, min^−1) of test article decay and the volume of the incubation. These values were scaled to intrinsic organ clearance (Clint) using human specific scaling factors (48.8 mg microsomal protein per g liver; 25.7 g liver per kg body weight). […]
(In general: Microsomes from liver hold many membrane-bound enzymes, among them those of drug oxidation.)

With `[2H]C([2H])([2H])n1nc(C(C)(C)n2nccn2)cc1Nc1ncc(C(F)(F)F)c(NCC)n1` [Compound 34, N4-Ethyl-N2-[1-(^2H3)methyl-3-[2-(2H-1,2,3-triazol-2-yl)propan-2-yl]-1H-pyrazol-5-yl]-5-(trifluoromethyl)pyrimidine-2,4-diamine], the “Human liver microsomes CLhep” value turned out to be 0.75 mL/min/kg.

Regarding `CNc1nc(Nc2cn(C(C)(C)c3ncn(C)n3)nc2C)ncc1C(F)(F)F` [Compound 218], the “Human liver microsomes CLhep” value is given as 0 mL/min/kg.
